Positions of bridges follow the written chain, without caps; N, C: chain ends. No end group written: not given here.
Experiments:
CJ^OPT protein crystal = system: CJ^OPT protein crystal; design: species or system Campylobacter jejuni
[1] = system: adipose-derived stem cells (ADSCs); assay: ADSC attachment and spreading on protein crystals; format: cell-based, human; settings: protein crystal surface passivated by covalent attachment of PEG; data not shown
[2] = cyclic peptide; cited from earlier work
streptavidin = settings: AFM; streptavidin/biotin partners (Beebe et al.) ref 40, 41; cited from earlier work

poly(ethylene glycol) [PEG]
adsorption of PEG from solution by crystals (CJ^OPT protein crystal): adsorbed by the crystals from solution within minutes
cell adhesion [1]: no cell adhesion

CWDDGWLC (disulfide 1-8 (inferred)) [IntP]
binding to RGD [2]: binds RGD

O=C(O)CCCC[C@@H]1SC[C@@H]2NC(=O)N[C@@H]21 [biotin]
ligand-receptor bond-rupture force (streptavidin): 442 ± 17 pN
